According to article PMC7377239, “Cardiovascular Effects of Polychlorinated Biphenyls and Their Major Metabolites” (Environmental Health Perspectives, 2020):
Where two headings read alike, the source gives them in different places.

Tested on: iCell cardiomyocytes (human iPSC-derived cardiomyocytes)
Experiment: Intracellular Ca2+ flux / beating parameters in iCell cardiomyocytes (FLIPR tetra), 90 min or 24 h
Format: cell-based
Details: Homo sapiens, Cardiomyocyte, 0.00 µM = 100.00; for activity at 0.1 µM: 0.10 µM
In short: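 PODs were defined as the concentration crossing one SD of the vehicle-control means (0.5% DMSO) on four-parameter logistic fits of Ca2+ trace metrics (peak height, frequency, peak-spacing CV, decay/rise ratio). Traces came from 100 s, 8 Hz FLIPR reads at 37 °C on calcium-dye-loaded iCell cardiomyocytes. Before reading, cells were treated for 90 min or 24 h from 5× chemical plates spanning 0.05–500 µM, in triplicate.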

[1] = 1.5 h, 90min, read-out: cm.amp.avg.90min
[2] = 1.5 h, 90min, read-out: cm.amp.cv.90min
[3] = 1.5 h, 90min, read-out: cm.bpm.90min
[4] = 1.5 h, 90min, read-out: cm.decay.rise.90min
[5] = 1.5 h, 90min, read-out: cm.spacing.cv.90min
[6] = 24 h, 24hrs, read-out: cm.amp.avg.24hrs
[7] = 24 h, 24hrs, read-out: cm.amp.cv.24hrs
[8] = 24 h, 24hrs, read-out: cm.bpm.24hrs
[9] = 24 h, 24hrs, read-out: cm.decay.rise.24hrs
[10] = 24 h, 24hrs, read-out: cm.spacing.cv.24hrs

Clc1cc(Cl)c(-c2cc(Cl)c(Cl)cc2Cl)cc1Cl [PCB153]
activity at 0.01 µM [1]: 105% | activity at 0.01 µM [2]: 113% | activity at 0.01 µM [3]: 107% | activity at 0.01 µM [4]: 97.7% | activity at 0.01 µM [5]: 119% | activity at 0.1 µM [1]: 107% | activity at 0.1 µM [2]: 98.7% | activity at 0.1 µM [3]: 97.8% | activity at 0.1 µM [4]: 100% | activity at 0.1 µM [5]: 102% | activity at 1 µM [1]: 108% | activity at 1 µM [2]: 121% | activity at 1 µM [3]: 103% | activity at 1 µM [4]: 92.5% | activity at 1 µM [5]: 108% | activity at 10 µM [1]: 93.7% | activity at 10 µM [2]: 126% | activity at 10 µM [3]: 120% | activity at 10 µM [4]: 92.4% | activity at 10 µM [5]: 119% | activity at 100 µM [1]: 0% | activity at 100 µM [2]: 0% | activity at 100 µM [3]: 0% | activity at 100 µM [4]: 0% | activity at 100 µM [5]: 0% | activity at 0.01 µM [6]: 50.2% | activity at 0.01 µM [7]: 50.5% | activity at 0.01 µM [8]: 51.5% | activity at 0.01 µM [9]: 57.7% | activity at 0.01 µM [10]: 50.2% | activity at 0.1 µM [6]: 81.6% | activity at 0.1 µM [7]: 123% | activity at 0.1 µM [8]: 101% | activity at 0.1 µM [9]: 92.5% | activity at 0.1 µM [10]: 108% | activity at 1 µM [6]: 125% | activity at 1 µM [7]: 84.9% | activity at 1 µM [8]: 99.3% | activity at 1 µM [9]: 102% | activity at 1 µM [10]: 97.8% | activity at 10 µM [6]: 122% | activity at 10 µM [7]: 120% | activity at 10 µM [8]: 129% | activity at 10 µM [9]: 93% | activity at 10 µM [10]: 121% | activity at 100 µM [6]: 0% | activity at 100 µM [7]: 0% | activity at 100 µM [8]: 0% | activity at 100 µM [9]: 0% | activity at 100 µM [10]: 0%
